Assay [1] relates to IL6 secretion by TMD8 ABC-DLBCL cells. Description: Human IL6 Mesoscale assay (TMD-8). The format is cell-based. The conditions noted are these: Homo sapiens, TMD8; TMD-8 cells, 24 h. Put shortly: (§1)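 Read-out: MSD electrochemiluminescence of IL6/IL10 in supernatants. Cells (100,000/well, no beta-mercaptoethanol) were exposed to compounds at 15 μM down to 58.6 nM, 1:2 dilutions, for 24 h at 37° C, 5% CO2. Normalised between DMSO (high) and RN486 (low) controls.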

The test system of a further assay is TMD8 cells. In words: 4-day proliferation assay, TMD8. The assay is classed as cell-based. To be noted: Homo sapiens, 96 h, 4 days incubation, CellTiterGLO, read-out: Anti-proliferation: TMD-8 IC50. The procedure: (§2) To assess anti-proliferative effects, MALT1 inhibitor test compounds were tested in 4-day proliferation assays using three different DLBCL cell lines.
(§3) Cells should be kept between 0.5-2.5 million cells per mL during culturing and cells should be supplemented every 2-3 days with fresh 50 μM beta-mercaptoenthanol. No beta-mercaptoethanol is used during the proliferation assay. OCI-Ly7 cells were propagated in IMDM (ThermoFisher) supplemented with 10% fetal bovine serum (HyClone), 2 mM L-glutamine (Sigma Aldrich) and 50 μg/mL Gentamycin. Cell passage numbers should not exceed 30 (for OCI-Ly3 cells with passage number lower than 10 were used).
(§4) 10,000 TMD8, 10,000 OCI-Ly3 or 2,000 OCI-Ly7 cells were seeded in 100 μL media per well and incubated for 4 days at 37° C. and 5% CO2. Cell plating numbers were chosen based on growth curves to ensure linear cell growth. After 4 days of incubation 50 μL CellTiterGLO reagent (Promega) were added to each well and luminescence was measured on the Envision after 10 min of incubation at room temperature.
(§5) LC=median of the low control values
(§6) An estimate of the slope of the plot in terms of the Hill coefficient was also obtained.
A general note: ATP-based viability assays read luminescence as a measure of living cells.

Assay [2] addresses full-length MALT1 protein (Strep-MALT1(1-824)-His) (Homo sapiens (Human), UniProt Q9UDY8). In words: MALT1 Biochemical Protease Assay (Ac-LRSR-AMC substrate). To be noted: 10 nM FL MALT1, 200 μM Ac-LRSR-AMC, 4 h at RT; read-out: MALT1_Biochemical activity (Ac-LRSR-amc) IC50. In a few lines: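 Full-length MALT1 pre-incubated with compounds (30 μM to 0.5 nM, 11 threefold steps) for 50 min at RT. After Ac-LRSR-AMC was added, the reaction ran 4 h at RT and AMC fluorescence was read. IC50 and Hill slope from curve fitting against no-enzyme and no-compound controls.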

Assay [3] has as its system IL10 secretion by TMD8 ABC-DLBCL cells. Description: Human IL10 Mesoscale assay (TMD-8). The conditions noted are these: Homo sapiens, TMD8; TMD-8 cells, 24 h. The format is cell-based. In a few lines: as §1
The next assay has as its system OCI-Ly3 cells. In words: 4-day proliferation assay, OCI-Ly3. The assay is classed as cell-based, human. The conditions noted are these: Homo sapiens, 96 h, 4 days incubation, CellTiterGLO, read-out: Anti-proliferation: OCI-LY-3 IC50. The procedure: as §2, §3, §4, §5, §6

full-length MALT1 protein (Strep-MALT1(1-824)-His), sequence (Q9UDY8 whole entry): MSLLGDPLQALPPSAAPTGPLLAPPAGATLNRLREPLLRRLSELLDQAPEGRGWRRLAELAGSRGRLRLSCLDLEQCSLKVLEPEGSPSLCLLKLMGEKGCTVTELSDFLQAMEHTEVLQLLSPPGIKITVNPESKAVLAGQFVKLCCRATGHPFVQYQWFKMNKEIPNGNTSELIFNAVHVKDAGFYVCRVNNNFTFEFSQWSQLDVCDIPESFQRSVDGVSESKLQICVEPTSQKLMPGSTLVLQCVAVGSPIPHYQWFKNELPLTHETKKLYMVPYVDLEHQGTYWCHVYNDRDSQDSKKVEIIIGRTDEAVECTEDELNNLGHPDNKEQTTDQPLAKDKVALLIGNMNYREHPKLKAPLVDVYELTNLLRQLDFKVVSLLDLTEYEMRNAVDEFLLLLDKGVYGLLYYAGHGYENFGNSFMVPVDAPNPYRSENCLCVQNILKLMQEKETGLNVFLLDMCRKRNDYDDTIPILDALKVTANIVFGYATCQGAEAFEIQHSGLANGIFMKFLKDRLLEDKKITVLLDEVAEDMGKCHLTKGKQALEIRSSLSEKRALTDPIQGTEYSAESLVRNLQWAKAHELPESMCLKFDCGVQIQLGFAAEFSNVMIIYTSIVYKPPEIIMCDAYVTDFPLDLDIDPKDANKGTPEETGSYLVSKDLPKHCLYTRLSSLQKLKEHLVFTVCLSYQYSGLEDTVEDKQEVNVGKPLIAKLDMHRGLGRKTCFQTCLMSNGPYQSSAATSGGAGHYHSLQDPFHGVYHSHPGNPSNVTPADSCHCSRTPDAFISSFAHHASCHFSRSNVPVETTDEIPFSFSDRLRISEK

For `O=C(Nc1cnc(-n2ccnc2)c(Cl)c1)c1cnn(-c2cncc3ccccc23)c1C(F)(F)F` [Cpd 70, N-(5-chloro-6-(1H-imidazol-1-yl)pyridin-3-yl)-1-(isoquinolin-4-yl)-5-(trifluoromethyl)-1H-pyrazole-4-carboxamide], the IC50 in assay [1] was 1100 nM; with TMD8 cells, approximately 13800 nM; in assay [2], 479 nM; in assay [3], 891 nM; with OCI-Ly3 cells, approximately 1350 nM.

`NCCCCNC(=O)c1ncc(NC(=O)c2cnn(-c3cncc4ccccc34)c2C(F)(F)F)cc1Cl` [Cpd 72, N-(4-aminobutyl)-3-chloro-5-(1-(isoquinolin-4-yl)-5-(trifluoromethyl)-1H-pyrazole-4-carboxamido)picolinamide]: the IC50 was 851 nM in assay [1]; more than 20000 nM with TMD8 cells; 407 nM in assay [2]; 1380 nM in assay [3]; 1660 nM with OCI-Ly3 cells.

Turning to `Cc1cc(NC(=O)c2cnn(-c3cncc4ccccc34)c2C(F)(F)F)cc(C(F)(F)F)n1` [Cpd 73, 1-(isoquinolin-4-yl)-N-(2-methyl-6-(trifluoromethyl)pyridin-4-yl)-5-(trifluoromethyl)-1H-pyrazole-4-carboxamide], the IC50 in assay [1] is 417 nM; with TMD8 cells it was approximately 11500 nM; in assay [2], 724 nM; in assay [3], 339 nM; in the assay with OCI-Ly3 cells, 1950 nM.

`COC(=O)c1cc(NC(=O)c2cnn(-c3cncc4ccccc34)c2C(F)(F)F)cc(Cl)n1` [Cpd 74, Methyl 6-chloro-4-(1-(isoquinolin-4-yl)-5-(trifluoromethyl)-1H-pyrazole-4-carboxamido)picolinate]: the IC50 in assay [1] is 1380 nM; in the assay on TMD8 cells, more than 20000 nM; in assay [2], 372 nM; in assay [3] it was 1380 nM; in the assay on OCI-Ly3 cells, 2450 nM.

As to `Cn1ccc(-c2ncc(NC(=O)c3cnn(-c4cncc5ccccc45)c3C(F)(F)F)cc2C#N)n1` [Cpd 78, N-(5-cyano-6-(1-methyl-1H-pyrazol-3-yl)pyridin-3-yl)-1-(isoquinolin-4-yl)-5-(trifluoromethyl)-1H-pyrazole-4-carboxamide], the IC50 in assay [1] is 81 nM; with TMD8 cells, 7590 nM; in assay [2], 55 nM; in assay [3] it was 112 nM; in the assay with OCI-Ly3 cells, approximately 490 nM.

Take `O=C(Nc1cnc(OC2CC2)c(Cl)c1)c1cnn(-c2cccc3ncccc23)c1C(F)(F)F` [Cpd 79, N-(5-Chloro-6-cyclopropoxypyridin-3-yl)-1-(quinolin-5-yl)-5-(trifluoromethyl)-1H-pyrazole-4-carboxamide]: the IC50 in assay [1] was approximately 340 nM; in the assay on TMD8 cells it was 8320 nM; in assay [2], 98 nM; in assay [3], 251 nM; with OCI-Ly3 cells, approximately 2340 nM.

As for `CCOc1ncc(NC(=O)c2cnn(-c3cccc4ncccc34)c2C(F)(F)F)cc1C#N` [Cpd 81, N-(5-cyano-6-ethoxypyridin-3-yl)-1-(quinolin-5-yl)-5-(trifluoromethyl)-1H-pyrazole-4-carboxamide], the IC50 was 135 nM in assay [1]; 11500 nM in the assay with TMD8 cells; 123 nM in assay [2]; 138 nM in assay [3]; approximately 1350 nM in the assay with OCI-Ly3 cells.

With `N#Cc1cncc(NC(=O)c2cnn(-c3cncc4ccccc34)c2C(F)(F)F)c1` [Cpd 82, N-(5-cyanopyridin-3-yl)-1-(isoquinolin-4-yl)-5-(trifluoromethyl)-1H-pyrazole-4-carboxamide], the IC50 in assay [1] was 240 nM; in the assay on TMD8 cells it was 6310 nM; in assay [2], 676 nM; in assay [3] it was 295 nM; in the assay with OCI-Ly3 cells it was approximately 1580 nM.

As to `N#Cc1cc(NC(=O)c2cnn(-c3cccc4ncccc34)c2C(F)(F)F)cnc1-n1nccn1` [Cpd 83, N-(5-cyano-6-(2H-1,2,3-triazol-2-yl)pyridin-3-yl)-1-(quinolin-5-yl)-5-(trifluoromethyl)-1H-pyrazole-4-carboxamide], the IC50 in assay [1] was 32 nM; in the assay on TMD8 cells, approximately 8320 nM; in assay [2], 34 nM; in assay [3] it was 43 nM; in the assay with OCI-Ly3 cells, 510 nM.

Turning to `N#Cc1cc(NC(=O)c2cnn(-c3cncc4ccccc34)c2C(F)(F)F)cnc1OCCCCN` [Cpd 84, N-(6-(4-aminobutoxy)-5-cyanopyridin-3-yl)-1-(isoquinolin-4-yl)-5-(trifluoromethyl)-1H-pyrazole-4-carboxamide], the IC50 in assay [1] was 148 nM; with TMD8 cells, more than 20000 nM; in assay [2], 214 nM; in assay [3] it was 355 nM; in the assay with OCI-Ly3 cells it was 1700 nM.

In the case of `COc1ncc(NC(=O)c2cnn(-c3cccc4ncccc34)c2C(F)(F)F)cc1C#N` [Cpd 85, N-(5-cyano-6-methoxypyridin-3-yl)-1-(quinolin-5-yl)-5-(trifluoromethyl)-1H-pyrazole-4-carboxamide], the IC50 is 95 nM in assay [1]; more than 20000 nM in the assay on TMD8 cells; 132 nM in assay [2]; 120 nM in assay [3]; 1660 nM in the assay on OCI-Ly3 cells.

In the case of `N#Cc1cc(NC(=O)c2cnn(-c3cccc4ncccc34)c2C(F)(F)F)cnc1-n1cncn1` [Cpd 86, N-(5-cyano-6-(1H-1,2,4-triazol-1-yl)pyridin-3-yl)-1-(quinolin-5-yl)-5-(trifluoromethyl)-1H-pyrazole-4-carboxamide], the IC50 in assay [1] was 37 nM; with TMD8 cells, approximately 11200 nM; in assay [2], 71 nM; in assay [3], 148 nM; in the assay with OCI-Ly3 cells, 780 nM.

For the molecule `O=C1COc2c(Cl)cc(NC(=O)c3cnn(-c4cncc5ccccc45)c3C(F)(F)F)cc2N1` [Cpd 87, N-(8-Chloro-3-oxo-3,4-dihydro-2H-benzo[b][1,4]oxazin-6-yl)-1-(isoquinolin-4-yl)-5-(trifluoromethyl)-1H-pyrazole-4-carboxamide], the IC50 is 251 nM in assay [1]; approximately 13800 nM in the assay with TMD8 cells; 141 nM in assay [2]; 324 nM in assay [3]; 1700 nM with OCI-Ly3 cells.

As for `N#Cc1cc(NC(=O)c2cnn(-c3cccc4ncccc34)c2C(F)(F)F)cnc1OC1CC1` [Cpd 88, N-(5-cyano-6-cyclopropoxypyridin-3-yl)-1-(quinolin-5-yl)-5-(trifluoromethyl)-1H-pyrazole-4-carboxamide], the IC50 in assay [1] is 331 nM; with TMD8 cells, approximately 12000 nM; in assay [2], 107 nM; in assay [3] it was 209 nM; in the assay on OCI-Ly3 cells it was 1350 nM.

Turning to `Cn1ccc(-c2ncc(NC(=O)c3cnn(-c4cccc5ncccc45)c3C(F)(F)F)cc2C#N)n1` [Cpd 89, N-(5-cyano-6-(1-methyl-1H-pyrazol-3-yl)pyridin-3-yl)-1-(quinolin-5-yl)-5-(trifluoromethyl)-1H-pyrazole-4-carboxamide], the IC50 in assay [1] was 74 nM; in the assay on TMD8 cells, more than 20000 nM; in assay [2] it was 41 nM; in assay [3], 95 nM; with OCI-Ly3 cells, 740 nM.

As to `N#Cc1cc(NC(=O)c2cnn(-c3nccc4sccc34)c2C(F)(F)F)cnc1-n1nccn1` [Cpd 90, N-(5-cyano-6-(2H-1,2,3-triazol-2-yl)pyridin-3-yl)-1-(thieno[3,2-c]pyridin-4-yl)-5-(trifluoromethyl)-1H-pyrazole-4-carboxamide], the IC50 was 98 nM in assay [1]; approximately 3890 nM in the assay on TMD8 cells; 21 nM in assay [2]; 135 nM in assay [3]; 520 nM with OCI-Ly3 cells.

For `CN1C(=O)COc2c(Cl)cc(NC(=O)c3cnn(-c4cccc5ncccc45)c3C(F)(F)F)cc21` [Cpd 95, N-(8-Chloro-4-methyl-3-oxo-3,4-dihydro-2H-benzo[b][1,4]oxazin-6-yl)-1-(quinolin-5-yl)-5-(trifluoromethyl)-1H-pyrazole-4-carboxamide], the IC50 in assay [1] was 646 nM; in the assay with TMD8 cells, approximately 7940 nM; in assay [2] it was 117 nM; in assay [3] it was 302 nM; in the assay with OCI-Ly3 cells it was 3800 nM.

`CN1CCN(C(=O)c2ncc(NC(=O)c3cnn(-c4cncc5ccccc45)c3C(F)(F)F)cc2C#N)CC1` [Cpd 96, N-(5-cyano-6-(4-methylpiperazine-1-carbonyl)pyridin-3-yl)-1-(isoquinolin-4-yl)-5-(trifluoromethyl)-1H-pyrazole-4-carboxamide]: the IC50 is 1050 nM in assay [1]; approximately 15500 nM in the assay with TMD8 cells; 759 nM in assay [2]; 676 nM in assay [3]; 7080 nM in the assay with OCI-Ly3 cells.

(Values after patent US10954214B2 (Janssen Pharmaceutica NV, priority 2016, dated 2021).)
